Measured values: patent US12697328B2, “Methods for treating metastasis with cathepsin C inhibitors” (Shanghai Institute of Nutrition and Health, Chinese Academy …, priority 2020, dated 2026)

Assays:
murine neutrophils = experiment: In vitro NET analysis of neutrophils cultured in 4T07 or 4T1 conditioned media; format: cell-based; conditions: Sivelestat 10 μM or DNase I 1 μg/ml; FIG. 8F
Method: To assess NET formation, neutrophils (2.5×10^5 cells) were seeded on coverslips coated with poly-L-lysine (P4707, Sigma) in 24-well plates for 30 min before adding 10% cancer cell CM, Sivelestat (10 μM), PMA (20 nM, Sigma), Cl-amidine (100 μM, Selleck) and/or DNase I (1 μg/ml). After 12 to 16 h at 37° C., neutrophils were fixed with 4% paraformaldehyde (PFA) for 10 min at room temperature, washed twice with PBS and permeabilized in 0.1% Triton X-100 for 5 min. […] NET area quantification was performed using the DANA method (Rebernick et al., “DNA area and NETosis analysis (DANA): a high-throughput method to quantify neutrophil extracellular traps in fluorescent microscope images,” Biol. Proced. Online 20:7 (2018)). Briefly, the areas of structures depicting NET morphology and positive for Ci-H3 or total H3 were counted as NETotic cell areas, and the NET area percentages were analyzed as NETotic cell areas divided by total DNA areas. The percentages of NETotic cells were analyzed as previously described ([…]). […] The percentage of NETotic cells was counted as the numbers of NETotic cells divided by the total cell numbers. […]

neutrophils [1] = experiment: Formation of NETs in neutrophils stimulated by cancer cell conditioned medium (immunofluorescence, MPO and Ci-H3); format: cell-based, mice; conditions: CM of lung-/liver-metastatic breast cancer and bone-metastatic lung cancer cells, with or without brensocatib; FIGS. 11D, F, I
Method: To isolate neutrophil from bone marrow, bone marrow cells from 8 to 12-weeks-old BALB/c mice were harvested in sterile Hank's buffered salt solution (HBSS) without Ca^2+/Mg^2+ (14185052, Invitrogen), and laid on top of a 2-layer Percoll (17089102, GE Healthcare) gradient (72% and 63.5% in HBSS), followed by centrifugation at 1,200 g for 30 min at 25° C. Neutrophils enriched in the interface of 63.5%-72% fractions were confirmed to be of >95% purity by flow cytometry analysis. To isolate neutrophils from peripheral blood of mice, whole blood was collected via cardiac puncture (1 ml per animal) and suspended in HBSS (2 ml per animal) with 15 mM EDTA. After centrifugation (400 g, 10 min, 4° C.), white cells were resuspended in 2 ml HBSS with 2 mM EDTA. […] The purity of the isolated neutrophils was determined by May-Grunwald-Giemsa staining (40751ES02, Yea-sen). […]
To assess NET formation, neutrophils (2.5×10^5 cells) were seeded on coverslips coated with poly-L-lysine (P4707, Sigma) in 24-well plates for 30 min before adding 10% cancer cell CM, Sivelestat (10 μM), PMA (20 nM, Sigma), Cl-amidine (100 μM, Selleck) and/or DNase I (1 μg/ml). […] NET area quantification was performed using the DANA method (Rebernick et al., “DNA area and NETosis analysis (DANA): a high-throughput method to quantify neutrophil extracellular traps in fluorescent microscope images,” Biol. Proced. Online 20:7 (2018)). […]

gastric cancer cells AGS = experiment: NET-promoted tumor sphere formation, gastric cancer; format: cell-based; conditions: neutrophil medium, CM with or without brensocatib, FIG. 11M
Method: (§1) To test the therapeutic effects of brensocatib in different cancer types in vitro, the ability of brensocatib to inhibit NET-promoted tumor sphere formation is investigated. The neutrophils are cultured with conditioned medium from tumor cells of colon cancer, liver cancer, lung cancer, gastric cancer and pancreatic cancer with or without brensocatib treatment to activate NETosis, and then the neutrophil medium was used in tumor sphere formation of these cancer cells to analyze the effect of neutrophil medium to facilitate tumor cell growth. The amount of tumorsphere in each sample is then determined by imaging.

[2] = system: hepatocellular carcinoma cells HUH7; experiment: NET-promoted tumor sphere formation, liver cancer; format: cell-based; conditions: neutrophil medium, CM with or without brensocatib, FIG. 11N
Method: as §1

neutrophils [3] = experiment: Neutrophil recruitment by cancer cell conditioned medium (Transwell chambers); format: cell-based, mice; conditions: CM of liver-metastatic breast cancer and bone-metastatic lung cancer cells, with or without brensocatib; FIGS. 11G, J
Method: To isolate neutrophil from bone marrow, bone marrow cells from 8 to 12-weeks-old BALB/c mice were harvested in sterile Hank's buffered salt solution (HBSS) without Ca^2+/Mg^2+ (14185052, Invitrogen), and laid on top of a 2-layer Percoll (17089102, GE Healthcare) gradient (72% and 63.5% in HBSS), followed by centrifugation at 1,200 g for 30 min at 25° C. Neutrophils enriched in the interface of 63.5%-72% fractions were confirmed to be of >95% purity by flow cytometry analysis. To isolate neutrophils from peripheral blood of mice, whole blood was collected via cardiac puncture (1 ml per animal) and suspended in HBSS (2 ml per animal) with 15 mM EDTA. After centrifugation (400 g, 10 min, 4° C.), white cells were resuspended in 2 ml HBSS with 2 mM EDTA. Then, the cells were centrifuged (1500 g, 30 min, room temperature) in a three-layer Percoll gradient (78%, 69%, and 52%) without braking. […] The purity of the isolated neutrophils was determined by May-Grunwald-Giemsa staining (40751ES02, Yea-sen). […]
The procedure of two-chamber migration assays was previously described (Zhuang et al., “Differential effects on lung and bone metastasis of breast cancer by Wnt signalling inhibitor DKK1,” Nat. Cell Biol. 19:1274-1285 (2017)). […] The migrated cells in the lower chamber were counted after 3 h. […]

## CC(C)(C)C(=O)Oc1ccc(S(=O)(=O)Nc2ccccc2C(=O)NCC(=O)O)cc1 [Silvelestat]
Murine neutrophils
  NET formation induced by CTSC (percentage area covered by NETs): blocks the ability of CTSC to induce NET formation

## Cn1c(=O)oc2ccc(-c3ccc(C[C@@H](C#N)NC(=O)[C@@H]4CNCCCO4)cc3)cc21 [brensocatib, (2S)—N-{(1S)-1-cyano-2-[4-(3-methyl-2-oxo-2,3-dihydro-1,3-benzoxazol-5-yl)phenyl]ethyl}-1,4-oxazepane-2-carboxamide]
Neutrophils [1]
  formation of NETs: significantly reduced
Gastric cancer cells AGS
  NET-promoted tumor sphere formation (in vitro tumor growth): inhibit in vitro tumor growth
[2]
  NET-promoted tumor sphere formation (in vitro tumor growth): inhibit in vitro tumor growth
Neutrophils [3]
  neutrophil recruitment: significantly reduced
